Laboratory results as given in US20030228675A1, “ATM related kinase ATX, nucleic acids encoding same and methods of use” (priority 2002, published 2003).

Assays:
Format in all cases: cell-based, human
[1] = test system: U2OS cells; test: Clonogenic survival assay of oligonucleotide-transfected cells
Description: To address concerns related to potential non-specific effects of ATXKI expression on cellular functions, an antisense oligonucleotide-based approach to reduce the level of ATX expression in U2OS cells was developed. The cells were mock transfected, or transfected with sense (S) or antisense (AS) oligonucleotides, and then treated for 24 h with various genotoxic agents. The cells were then trypsinized and replated, and clonogenic survival was analyzed after 10 days in culture. The results obtained with AS-treated cells were strikingly similar to those obtained with the ATXKI-expressing cells (FIGS. 2A-C). While transfection of U2OS cells with the S oligonucleotide reduced the basal level of colony outgrowth by 25%, treatment with the AS oligonucleotide decreased basal clonogenic activity by 75% (FIG. 2C, right panel). […] The reduction in ATX protein caused by AS treatment ranged from 50-90% in over 10 independent trials.
(§1) To prepare recombinant HA-tagged ATX and ATM proteins, HEK 293T cells were plated onto 60-mm dishes (9×10^5 cells per dish), and were transfected with 5 μg pcDNA3.1 (empty vector), HA-ATXWT, HA-ATXKI, or HA-ATMWT plasmid DNAS. Transfections were performed with the Fugene 6 transfection reagent (Roche), according to the manufacturer's instructions. For NMD assays (see Example 9, below), U2OS cells were seeded onto 100 mm dishes (1×10^6 cells per dish). […]
U2OS cells were seeded into 60 mm dishes (1×10^5 cells per dish) in complete medium. […] To quantitate the outgrowth of drug-resistant cells, the Coomassie Blue-bound protein was solubilized at 37° C. with 0.1 M NaOH, and the soluble material was analyzed by absorbance spectroscopy at a wavelength of 590 nm. […] Drug-resistant colonies were stained with Coomassie Blue after 10 days in culture, and the samples were analyzed with Image Pro Plus software to quantitate cell density. […]

[2] = test system: ATX; test: Protein levels in oligonucleotide-treated cells by immunoblotting; conditions: U2OS
Description: as §1, with “dish). After 20 h, cells were transfected with 1.5 μg of pmCMV-Gl test plasmid, either Norm or 39Ter (Ishigaki et al., 2001); 1.5 μg of phCMV-MUP reference plasmid (Ishigaki et al., Cell 106:607-617 (2001)); and 7 μg of empty plasmid (pcDNA 3.1), plasmids encoding HA-ATMWT, HA-ATMKI, HA-ATXWT or HA-ATXKI.” for “dish).”
Since p53 plays a central role in activation of the G1 checkpoint, and influences S, G2, and M checkpoints as well (Giaccia and Kastan, Genes & Development 12:2973-2983 (1998); Ko and Prives, supra, 1996), a functional deficiency of ATX might alter the cell-cycle arrest responses to IR and other genotoxic agents. To test this possibility, U2OS cells were pre-treated with S or AS oligonucleotides, exposed to IR, and cell-cycle distributions at 24 h post-irradiation were determined. […]

[3] = test system: hChk2; test: IR-dependent phosphorylation of hChk2; conditions: U2OS
Source text: Recent findings point toward ATM as a critical upstream regulator of the activity of the checkpoint kinase, hChk2, in IR-damaged cells (Ahn et al., Cancer Res. 60:5934-5936 (2000); Melchionna et al., Nat. Cell Biol. 2:762-765 (2000)). To determine whether ATX was also involved in hChk2 activation, the effect of AS oligonucleotide treatment on the IR-dependent phosphorylation of hChk2 was examined. […] Moreover, the differential effects of AS treatment on p53 expression versus hChk2 activation argue against the possibility that AS exposure leads to nonspecific inhibition of checkpoint signaling responses to IR-induced DNA damage.

[4] = test system: U2OS cells; test: Cell-cycle distribution by flow cytometry
Description: Since p53 plays a central role in activation of the G1 checkpoint, and influences S, G2, and M checkpoints as well (Giaccia and Kastan, Genes & Development 12:2973-2983 (1998); Ko and Prives, supra, 1996), a functional deficiency of ATX might alter the cell-cycle arrest responses to IR and other genotoxic agents. To test this possibility, U2OS cells were pre-treated with S or AS oligonucleotides, exposed to IR, and cell-cycle distributions at 24 h post-irradiation were determined.
The G2 checkpoint inhibitor was added to the culture medium at 8 h prior to harvest for determination of cell-cycle distributions (FIG. 3E, left panel), and immunoblotting for ATX expression (right panel).

## 5′-AGCAAGCTCCCTCCTGTCTC-3′ (all phosphorothioate, sugars by position and methylation of C not given here) [AS oligonucleotide, ATX antisense phosphorothioate oligonucleotide complementary to ATX nucleotides 210-229]
[1]; IR and UV treatments
  sensitivity to suppressive effects of IR and UV on clonogenic survival: significantly more sensitive
[1]; non-irradiated, 10 days in culture
  decrease of basal level of colony outgrowth (basal clonogenic activity): 75%
[2]; immunoblot
  expression levels of control proteins ATM and PLC-γ1: no significant change
[2]; over 10 independent trials
  reduction in ATX protein: 50-90%
[3]
  IR-dependent phosphorylation of hChk2: retained the ability to phosphorylate hChk2
[4]; 24 h post-irradiation
  cell-cycle distribution after IR exposure: arrested primarily in G2/M phase
[4]; no IR
  subpopulation with <2N DNA content (apoptotic cells): increased subpopulation
[4]; no IR, versus S oligonucleotide
  cell-cycle distribution in the absence of IR: reduction in the percentage of G1 phase cells, and a concomitant accumulation of G2/M phase cells
